Results as given in patent US20020086278A1, “CHROMOGENIC MEDIA CONTAINING BLOOD OR HEMIN” (priority 1999, published 2002).
Read-outs that look alike come from different tables or passages of the source.

Assays:
[1] = system: Escherichia coli 25922; assay: Example 1: growth and colony color on plates surface-spread with chromogen; format: cell-based; conditions: E. coli 25922
[2] = system: Streptococcus pneumoniae 6303; assay: as above; format: cell-based; conditions: TSA II 5SB; S. pneu: 6303
[3] = system: Group B Strep. 12386; assay: as above; format: cell-based; conditions: for Growth: Group B Strep 12386
[4] = system: N. gonorrhoeae 35201; assay: as above; format: cell-based; conditions: Substrate on Choclate II Agar; N. gono. 35201
[5] = system: Gardnerella vaginalis 14019; assay: as above; format: cell-based; conditions: Summary of Table I; G. vaginalis 14014
[6] = system: E. coli 25922; assay: Example 2: effect of incubation conditions on colony color formation; format: cell-based, Escherichia coli; conditions: 0.004 g/plate
[7] = system: Aeromonas hydrophilia (aehy); assay: Example 3: colony color on chromogenic TSA II with 5% sheep blood (chromogen in medium); format: cell-based; conditions: for Colony Color: CO2, 21 h
[8] = system: Branhamella catarrhalis (brca); assay: as above; format: cell-based; conditions: for Colony Color: CO2, 21 h
[9] = system: Candida albicans (caal); assay: as above; format: cell-based; conditions: for Colony Color: caal 10231, 24 h
[10] = system: Citrobacter freundii (cifr); assay: as above; format: cell-based; conditions: for Colony Color: CO2, 21 h
[11] = system: Entercoccus faecalis (enfa); assay: as above; format: cell-based
[12] = system: E. faecium (enfu); assay: as above; format: cell-based
[13] = system: Klebsiella pneumoniae (klpn); assay: as above; format: cell-based; conditions: for Colony Color: CO2, 21 h
[14] = system: Salmonella spp. (sasp); format: cell-based; conditions: for Colony Color: CO2, 21 h
[15] = system: Serratia marcescens (sema); assay: Example 3: colony color on chromogenic TSA II with 5% sheep blood (chromogen in medium); format: cell-based
[16] = system: Streptococcus agalactiae (stag); assay: as above; format: cell-based
[17] = system: Staphylococcus aureus (stau); assay: as above; format: cell-based
[18] = system: Staphylococcus Coag Neg (step); assay: as above; format: cell-based; conditions: 21 h
[19] = system: S. milleri (stmi); assay: as above; format: cell-based; conditions: for Colony Color: stmi 6249, 21 h
[20] = system: S pyogenes (stpy); assay: as above; format: cell-based; conditions: for Colony Color: 21 h
[21] = system: cakr 34135; assay: as above; format: cell-based; conditions: CO2, 21 h
[22] = system: milu 9341; assay: as above; format: cell-based; conditions: CO2, 21 h
[23] = chromogenic TSA II with 5% Sheep Blood, 0.1 g/l, 3 strains tested
[24] = chromogenic TSA II with 5% Sheep Blood, 0.1 g/l, 2 strains tested
[25] = chromogenic TSA II with 5% Sheep Blood, 0.1 g/l, 1 strain tested

OC[C@H]1O[C@@H](Oc2c[nH]c3ccc(Br)c(Cl)c23)[C@H](O)[C@@H](O)[C@H]1O [X-Gal, 5-Br-4-Cl-3-indolyl-β-D-galactopyranoside]
X-Gal: Substrates Producing Color ([1]; Summary of Table I) | Substrates Producing Growth Inhibition [5]
light blue: Color [2]
vlgb: Colony Color ([11]; enfa 29212, CO2, 24 h) | Colony Color ([11]; enfa 29212, air, 24 h)
Slight inhib. w/ X-: Substrates Producing Growth Inhibition ([3]; Summary of Table I, Group B Strep. 12386)
blue: Color ([1]; Choc II) | Color ([1]; TSA II 5SB) | Color ([1]; TSA Plain)
<: Growth ([3]; TSA II 5SB) | Growth ([3]; TSA Plain) | Growth [4]
blue (d): Colony Color ([6]; Chocolate II Agar, 24 h, air) | Colony Color ([6]; TSA II 5% Sheep Blood, 24 h, air) | Colony Color ([6]; TSA II 5% Sheep Blood, 5 d, ANA) | Colony Color ([6]; TSA II 5% Sheep Blood, 5 d, MA)
db: Colony Color ([12]; enfu 49032, air, 21 h)
lgb: Colony Color ([11]; enfa 10741, air, 21 h) | Colony Color ([11]; enfa 14506, CO2, 21 h)
+: Colony Color (Summary) [10, 24] | Colony Color (Summary) [12, 25] | Colony Color (Summary) [13, 23] | Colony Color (Summary) [15, 25]
dark blue: Colony Color ([12]; E. faecium (ATCC 49032))
0: Colony Color (Summary) [7, 23] | Colony Color ([8]; brca 25238) | Colony Color ([8]; brca 25240) | Colony Color (Summary) [8, 24] | Colony Color ([9]; CO2) | Colony Color ([9]; air) | Colony Color (Summary) [9, 24] | Colony Color ([11]; enfa 597, CO2, 21 h) | Colony Color ([11]; enfa 597, air, 21 h) | Colony Color ([11]; enfa 12953, CO2, 21 h) | Colony Color ([11]; enfa 12953, air, 21 h) | Colony Color ([11]; enfa 14506, air, 21 h) | Colony Color (Summary) [14, 24] | Colony Color ([14]; saty 19430) | Colony Color ([14]; satym 14028) | Colony Color (Summary) [16, 23] | Colony Color ([16]; stag 4768, CO2, 21 h) | Colony Color ([16]; stag 4768, air, 21 h) | Colony Color ([16]; stag 12386, CO2, 21 h) | Colony Color ([16]; stag 12386, CO2, 24 h) | Colony Color ([16]; stag 12386, air, 24 h) | Colony Color (Summary) ([17]; chromogenic TSA II with 5% Sheep Blood, 0.1 g/l, 5 strains tested) | Colony Color ([17]; stau 1006, CO2, 21 h) | Colony Color ([17]; stau 1007, CO2, 21 h) | Colony Color ([17]; stau 1008, CO2, 21 h) | Colony Color ([17]; stau 1009, CO2, 21 h) | Colony Color ([17]; stau 25923, CO2, 24 h) | Colony Color ([17]; stau 25923, air, 24 h) | Colony Color ([18]; step 12228, CO2) | Colony Color ([18]; step 12228, air) | Colony Color ([18]; step cdc1, CO2) | Colony Color ([18]; step cdc1, air) | Colony Color ([18]; step cdc2, CO2) | Colony Color ([18]; step cdc2, air) | Colony Color ([18]; step cdc4, CO2) | Colony Color ([18]; step cdc4, air) | Colony Color (Summary) [19, 24] | Colony Color ([19]; CO2) | Colony Color ([19]; air) | Colony Color (Summary) ([20]; chromogenic TSA II with 5% Sheep Blood, 0.1 g/l, 6 strains tested) | Colony Color ([20]; stpy 1027, CO2) | Colony Color ([20]; stpy 1028, CO2) | Colony Color ([20]; stpy 1029, CO2) | Colony Color ([20]; stpy 1030, CO2) | Colony Color ([20]; stpy 19615, CO2) | Colony Color ([20]; stpy 19615, air) | Colony Color ([20]; stpy 49117, CO2) | Colony Color ([20]; stpy 49117, air) | Colony Color ([20]; stpy 51339, CO2) | Colony Color ([20]; stpy 51339, air) | Colony Color [21] | Colony Color [22]
gb: Colony Color ([7]; aehy 7965) | Colony Color ([7]; aehy 7966) | Colony Color ([7]; aehy 49847) | Colony Color ([10]; cifr 8454) | Colony Color ([10]; cifr 33128) | Colony Color ([11]; enfa 10741, CO2, 21 h) | Colony Color ([11]; enfa 29212, CO2, 21 h) | Colony Color ([11]; enfa 29212, air, 21 h) | Colony Color ([12]; enfu 49032, CO2, 21 h) | Colony Color ([13]; klpn 13883) | Colony Color ([13]; klpn 33606) | Colony Color ([15]; sema 13880, CO2, 21 h)
